Laboratory results published in patent publication US12534439B2, “Xanthohumol derivatives and methods for making and using” (Oregon State University, priority 2021, dated 2026).

What was measured:
[1] = tested on: C2Cl2 cells; details: cited from earlier work
[2] = general statement on XN; cited from earlier work
[3] = tested on: HFD-fed C57BL/6J mice; assay: Follow-up study: XP given after 4 weeks of HFD pre-conditioning (Example 8); format: in vivo; details: for Decrease in weight gain, average: between weeks 9 and 12, versus HFD without compound
Description: This example concerns the effects of administering 4-(5-(4-hydroxyphenyl)-1-methyl-1H-pyrazol-3-yl)-5-methoxy-2-(3-methylbut-2-en-1-yl)benzene-1,3-diol to mice after a pre-conditioning phase of 4 weeks during which animals were fed a high-fat diet (HFD) or a low-fat diet (LFD). Forty 9-week old wild-type (WT) male C57BL/6J mice were obtained from Jackson Laboratory (Bar Harbor, ME, USA). The mice were housed in ventilated cages under a 12-12-hr light-dark cycle. Of the 40 mice, 32 were fed a HFD (Dyets Inc., Bethlehem, PA, USA) containing 60%, 20% and 20% total calories from fat, carbohydrate and protein, respectively. The remaining 8 mice were fed a LFD (Dyets Inc., Bethlehem, PA, USA), containing 11%, 70% and 19% total calories from fat, carbohydrate and protein, respectively. XP was first dissolved in a mixture of oleic acid:propylene glycol:Tween 80 (0.9:1:1 by weight) before the solution was mixed into the HFD at a concentration of 0.066% to reach a dose of 60 mg/kg body weight/day. After 4 weeks of HFD feeding, the XP-containing HFD was given to 16 of the 32 HFD-pretreated mice for 8 weeks. Sixteen mice in HFD-pretreatment group received a HFD control diet that contained an identical amount of the mixture of oleic acid:propylene glycol:Tween 80 (0.9:1:1 by weight). The LFD-fed mice were continued on the LFD diet. Food intake and body weights were recorded weekly. The mice were euthanized at week 12.

[4] = tested on: 3T3L1 cells; assay: MTT cell viability assay in differentiated 3T3L1 adipocytes; format: cell-based, murine
Experimental: (§1) To assess the toxicity of 4-(5-(4-hydroxyphenyl)-1-methyl-1h-pyrazol-3-yl)-5-methoxy-2-(3-methylbut-2-en-1-yl)benzene-1,3-diol (XP), in vitro cell viability assays were performed on several cell lines. HepG2, 3T3L1 and C2Cl2 cells were exposed to XP and cell viability was assessed using an MTT assay. At concentrations lower than 50 μM, XP had no effect on the viability of the human liver cancer cell lines HepG2 and murine myoblast cell lines C2Cl2 with respect to the control treatment (FIGS. 11A-11B). […] This establishes that XP is safe to use in vivo at dosages similar to xanthohumol.
Cell Viability Assays. Cells were seeded in 96-well plates 24 hours prior to adding the compound. HepG2 cells were seeded at a density of 5×10^4 cells/mL and C2Cl2 at 1×10^4 cells/mL in order to reach 80% confluency at the beginning of the experiment. After 24 hours, the culture medium was replaced with fresh medium containing various concentrations ranging between 0 and 200 μM of XP. The cells were incubated in the presence of the compound for 24 hours, at which time, the MTT viability assay was carried as previously described. […] The cells were incubated for 3 hours and then acidified with 100% isopropanol for 15 minutes before absorbance reading at 570 nm on a BioTek Synergy HT plate reader.

[5] = tested on: HepG2 cells; assay: MTT cell viability assay in HepG2 cells; format: cell-based, human; details: 24 hours
Experimental: as §1
Cell Viability Assays. Cells were seeded in 96-well plates 24 hours prior to adding the compound. HepG2 cells were seeded at a density of 5×10^4 cells/mL and C2Cl2 at 1×10^4 cells/mL in order to reach 80% confluency at the beginning of the experiment. After 24 hours, the culture medium was replaced with fresh medium containing various concentrations ranging between 0 and 200 μM of XP. The cells were incubated in the presence of the compound for 24 hours, at which time, the MTT viability assay was carried as previously described. MTT was dissolved at 0.5 mg/mL in serum-free Dulbecco's modified Eagle's medium, filter-sterilized and 100 μL was added to the cells. The cells were incubated for 3 hours and then acidified with 100% isopropanol for 15 minutes before absorbance reading at 570 nm on a BioTek Synergy HT plate reader.

[6] = listed as 4-(5-(4-hydroxyphenyl)-1-methyl-1h-pyrazol-3-yl)-5-methoxy-2-(3-methylbut-2-en-1)

Structure (SMILES) | Cytotoxic concentration [1] | Metabolism [2] | Weight gain versus control HFD-fed mice ([3]; 60 mg/kg body weight/day in HFD for 8 weeks after 4 weeks HFD) | Decrease in weight gain, average [3] | Decrease in weight gain, average [3, 6] [%] | Food intake versus control ([3]; mouse, in vivo) | Concentration without effect on cell viability ([4]; 3T3L1, MTT) | Concentration at which dose-dependent reduction in cell viability occurred ([4]; differentiated 3T3L1 adipocytes, MTT) [µM] | Concentration without effect on cell viability [5] | Concentration without effect on cell viability ([5]; listed as 4-(5-(4-hydroxyphenyl)-1-methyl-1H-pyrazol-3-yl)-5-methoxy-2-(3-methylbut-2-en-1)) | Concentration without effect on cell viability [5, 6] [µM]
COc1cc(O)c(CC=C(C)C)c(O)c1C(=O)/C=C/c1ccc(O)cc1 [XN, xanthohumol] | above 25 μM | subject to extensive phase 1 and phase 2 metabolism |  |  |  |  |  |  |  |  | 
COc1cc(O)c(CC=C(C)C)c(O)c1-c1cc(-c2ccc(O)cc2)n(C)n1 [XP, 4-(5-(4-hydroxyphenyl)-1-methyl-1H-pyrazol-3-yl)-5-methoxy-2-(3-methylbut-2-en-1-yl)benzene-1,3-diol] |  |  | gained significantly less weight | about 5% | 5 | no difference | up to 5 μM | 10 | lower than 50 μM | up to 25 μM | 1 to 50
